PubChem BioAssay (NCI)
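Following 48 hours of exposure in 96-well plates, responses at five concentrations were used to interpolate endpoints linearly. TGI marks complete inhibition of growth.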

Experiments:
Experiment in all cases: NCI tumour cell line growth inhibition, 48 h
M14 melanoma = test system: M14 melanoma
786-0 renal = test system: 786-0 renal
UACC-257 melanoma = test system: UACC-257 melanoma
HT29 colon = test system: HT29 colon
IGROV1 ovarian = test system: IGROV1 ovarian
HCC-2998 colon = test system: HCC-2998 colon
A549 NSCLC = test system: A549 NSCLC
DU-145 prostate = test system: DU-145 prostate
COLO 205 colon = test system: COLO 205 colon
ACHN renal = test system: ACHN renal
RPMI-8226 leukemia = test system: RPMI-8226 leukemia
HL-60(TB) leukemia = test system: HL-60(TB) leukemia
SK-MEL-5 melanoma = test system: SK-MEL-5 melanoma
HOP-62 NSCLC = test system: HOP-62 NSCLC
OVCAR-8 ovarian = test system: OVCAR-8 ovarian
K-562 leukemia = test system: K-562 leukemia
SW-620 colon = test system: SW-620 colon
PC-3 prostate = test system: PC-3 prostate
OVCAR-4 ovarian = test system: OVCAR-4 ovarian
MDA-MB-231 breast = test system: MDA-MB-231 breast

| SMILES | TGI (M14 melanoma) [µM] | TGI (786-0 renal) [µM] | TGI (UACC-257 melanoma) [µM] | TGI (HT29 colon) [µM] | TGI (IGROV1 ovarian) [µM] | TGI (HCC-2998 colon) [µM] | TGI (A549 NSCLC) [µM] | TGI (DU-145 prostate) [µM] | TGI (COLO 205 colon) [µM] | TGI (ACHN renal) [µM] | TGI (RPMI-8226 leukemia) [µM] | TGI (HL-60(TB) leukemia) [µM] | TGI (SK-MEL-5 melanoma) [µM] | TGI (HOP-62 NSCLC) [µM] | TGI (OVCAR-8 ovarian) [µM] | TGI (K-562 leukemia) [µM] | TGI (SW-620 colon) [µM] | TGI (PC-3 prostate) [µM] | TGI (OVCAR-4 ovarian) [µM] | TGI (MDA-MB-231 breast) [µM] |
| --- | --- | --- | --- | --- | --- | --- | --- | --- | --- | --- | --- | --- | --- | --- | --- | --- | --- | --- | --- | --- |
| CN(C)CCNc1ccc([N+](=O)[O-])c2sc3ccccc3c(=O)c12 | 46.8 | 20.8 | 19.6 | 32.1 | 7.66 | 13.1 | 20.2 | 31.5 | 14.3 | 13.2 | 7.52 | 12.5 | 20.6 | 8.36 | 19.9 | > 100 | > 100 | 21.6 | 9.27 | 9.39 |
| CC1=C(C(=O)OCCO[N+](=O)[O-])C(c2cccc([N+](=O)[O-])c2)C(C(=O)OC(C)C)=C(C)N1 (stereo not given) | 29.5 | 35.7 | 25.2 | 29.2 | 33.9 | 29.6 | 37.4 | 65.9 | 24.4 | > 100 | > 100 | > 100 | 26.1 | 30.9 | 54.2 | > 100 | 51.1 | 15.6 | 37.7 | 26.1 |
| CS(=O)(=O)OCCCCOS(=O)(=O)CF | > 100 | > 100 | > 100 | > 100 | > 100 | > 100 | > 100 | > 100 | > 100 | > 100 | > 100 | > 100 | > 100 | > 100 | > 100 | > 100 | > 100 | > 100 | > 100 | > 100 |
| Cc1cccc2oc3c(CC(=O)O)cccc3c(=O)c12 | > 100 | > 100 | > 100 | > 100 | > 100 | 40.9 | > 100 | > 100 | > 100 | > 100 | > 100 | > 100 | > 100 | > 100 | > 100 | > 100 | > 100 | > 100 | > 100 | > 100 |
| CC(C)(C)c1cc(C(=O)/C=C/c2c(Cl)cccc2Cl)cc(C(C)(C)C)c1O | 54.7 | 29.7 | 17.6 | 26.3 | > 100 | 28.1 | > 100 | > 96.2 | 32 | 28.2 | 21.3 | 25.9 | 23.9 | > 54.8 | > 100 | > 100 | 36.2 | > 63.9 | > 100 | 41.6 |
| c1ccc(C(C2=Nc3cccc4cccc(c34)N2)c2ccccc2)cc1 | 65 | 69.9 | 68 | 60.1 | > 100 | 37.8 | > 100 | 91.3 | 36.7 | 50.2 | > 100 | > 100 | 38.2 | 56.6 | > 100 | 81.7 | > 100 | 87.3 | > 100 | > 100 |
| O=c1cc(-c2cccc(O)c2)[nH]c2cc3c(cc12)OCO3 | > 52.5 | > 69.9 | > 100 | > 100 | > 100 | > 100 | > 100 | 0.883 | 9.32 | > 100 | > 100 | > 19.9 | 5.01 | 14.7 | > 29.7 | > 100 | > 100 | > 100 | > 100 | 22.1 |
| O=C(Nc1ccccc1)OCCN=C1c2ccccc2C(Br)C(Br)c2ccccc21 (stereo not given) | 12.4 | 8.18 | 15.6 | 14.6 | 10.6 | 20.8 | 25.4 | 16 | 13 | 20.6 | 19.9 | 3.85 | 16.9 | 19.9 | 13 | 7.03 | 16.3 | > 31.6 | 21.9 | 20.6 |
| CCCN(CCC)CCc1ccc(OC2=CCN(C)CC2)cc1 | 29.1 | > 100 | 43.9 | 46.4 | > 100 | > 100 | > 100 | > 100 | > 100 | > 100 | > 100 | > 100 | > 100 | > 100 | > 100 | > 100 | > 100 | > 100 | > 100 | > 100 |
| CN1CCc2cc3c(c4c2C1C(O)c1ccccc1-4)OCO3 (stereo not given) | 19.5 | 62.2 | 26.3 | 18.3 | 26 | 22.2 | 52.1 | > 100 | > 100 | > 100 | 32.6 | 5.06 | 26.4 | 18.6 | 50.5 | 63.5 | > 100 | 18.6 | 29.5 | 22.5 |
| C=Cc1nc2c(Cl)ncnc2n1Cc1ccccc1 | 15.7 | 4.49 | 8.6 | 7.28 | 10.9 | 6.76 | 29.1 | 7.2 | 3.08 | 3.59 | 18.3 | 9.17 | 8.69 | 20.1 | 12 | > 40.1 | 23.2 | 14.5 | 13.5 | 19.1 |
| COc1cc(NC(C)c2ccc3c(c2)OCCO3)cc(OC)c1OC (stereo not given) | > 100 | > 100 | > 100 | > 100 | > 100 | > 100 | > 100 | > 100 | 71.8 | > 100 | 84.6 | 48.6 | 76.3 | > 100 | > 100 | > 100 | > 100 | > 100 | > 100 | > 100 |
